Reference: patent publication US8158158B2, “Composite biocidal particles” (Arch Chemicals, Inc., priority 1998, dated 2012)
Where two headings read alike, the source gives them in different places.

How the values were obtained:
[1] = tested on: hard and soft fouling; test: Antifouling efficacy of paint on fiberglass panels submerged in seawater; assay type: in vivo; settings: single biocide, explanatory statement
Procedure: The antifouling efficacy of the composition of Example 1 was evaluated by mixing […] of it into 90 grams of a paint base. The commercial paint comprised:
This paint was painted onto fiberglass panels (8″×10″) and (12″×6″), which were then submerged in seawater for eight months (and running) in Miami, Fla.

[2] = cited from earlier work; for solubility: background statement

Question: Which efficacy against algae [1] does the source give for `On1ccccc1=S.On1ccccc1=S.[Cu]` [Copper pyrithione, copper pyrithione] here?
Answer: The efficacy against algae was “most effective against algae”.

Question: And the solubility [2]?
Answer: The solubility was “about 1 ppm”.

Question: What about the water solubility ([2]; in seawater) of the same molecule?
Answer: The water solubility was “less than 1 ppm”.

Question: Which efficacy against algae [1] does the source give for `[Cu].[O]=[Cu]` [cuprous oxide] here?
Answer: The efficacy against algae was “relatively ineffective against algae”.

Question: And the “resistance to barnacle formation” value [1]?
Answer: The value was “strongly resisting barnacle formation”.

Question: Which water solubility ([2]; water) does the source give for `[Na+].[O-][n+]1ccccc1[S-]` [sodium salt of pyrithione, sodium pyrithione] here?
Answer: Its water solubility is “about 53 % by weight”.

Question: With zinc pyrithione as the molecule, how does the solubility [2] read?
Answer: The solubility was 6-10 ppm.

Question: And the water solubility ([2]; water)?
Answer: The water solubility was 6-10 ppm.
